This passage reports IC50 results from patent US9718790B2, “Triazine derivative and pharmaceutical composition having an analgesic activity comprising the same” (SHIONOGI & CO., LTD., priority 2010, dated 2017).

In general, IC50 refers to the concentration at which inhibition is half-maximal.

Sequence of human P2X3 receptor (P56373 whole entry): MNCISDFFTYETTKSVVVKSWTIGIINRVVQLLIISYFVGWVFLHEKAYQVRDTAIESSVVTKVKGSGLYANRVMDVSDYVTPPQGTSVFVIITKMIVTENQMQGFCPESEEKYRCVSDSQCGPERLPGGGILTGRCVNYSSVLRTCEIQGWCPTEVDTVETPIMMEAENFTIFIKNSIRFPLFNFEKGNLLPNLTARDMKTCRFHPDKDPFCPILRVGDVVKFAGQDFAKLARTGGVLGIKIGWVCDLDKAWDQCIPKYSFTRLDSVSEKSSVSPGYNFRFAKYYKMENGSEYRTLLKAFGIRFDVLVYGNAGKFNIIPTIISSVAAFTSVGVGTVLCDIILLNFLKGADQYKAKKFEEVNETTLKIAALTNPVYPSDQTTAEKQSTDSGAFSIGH

The first experiment addresses human P2X3 receptor (Homo sapiens (Human), UniProt P56373). Nature of the experiment: Evaluation of human P2X3 receptor inhibitory activity (Fluo-3 calcium fluorescence, FDSS 3000, ATP stimulation).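 Also: stimulus was 50 nM ATP with fluorescence followed for 3 min, and the response per well was peak post-ATP fluorescence divided by the reading at measurement start.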 Type of experiment: cell-based. The note with it: C6BU-1 cells stably expressing human P2X3 receptor.
For `CNC(=O)Cn1c(=O)[nH]/c(=N\c2ccc(OCC3CC3)cc2)n(Cc2ccc(Cl)cc2)c1=O` [Compound I-1942], the IC50 was found to be 49 nM.
As to `C[C@@H](C(=O)O)[C@H](C)n1c(=O)[nH]/c(=N\c2ccc(OC3CCC3)cc2)n(Cc2ccc(Cl)cc2)c1=O` [Compound I-1391], the IC50 is 16 nM.
As for `CCn1c(=O)[nH]/c(=N\c2ccc(Oc3cc(C(=O)O)n[nH]3)cc2)n(Cc2ccc(Cl)cc2)c1=O` [Compound I-2194], the IC50 was determined as 52 nM.
Still for that read-out and setting: the result for `COC(=O)[C@@H](C)[C@@H](C)n1c(=O)[nH]/c(=N\c2ccc(OC(C)C)c(F)c2)n(Cc2ccc(C)cc2)c1=O` [Compound I-1311] reads 23 nM; that for `C[C@@H](Cn1c(=O)[nH]/c(=N\c2ccc(N3CCCCCC3)cc2)n(Cc2ccc(Cl)cc2)c1=O)C(=O)O` [Compound I-1235], 214 nM.
Consider `CO/N=C(\Cn1c(=O)[nH]/c(=N\c2ccc(OC(C)C)c(C)c2)n(Cc2ccc(Cl)cc2)c1=O)C(=O)O` [Compound I-0756], for which the IC50 is 131 nM.
On the same count and under the same terms, the same measure for `COC(=O)[C@@H]1CC(n2c(=O)[nH]/c(=N\c3ccc(OC(C)C)c(C)c3)n(Cc3ccc(Cl)cc3)c2=O)CN1C(=O)OC(C)(C)C` (stereo partly shown) [Compound I-0699]: 37 nM; for `Cc1ccc(Cn2c(=O)n(C[C@H](C)C(=O)O)c(=O)[nH]/c2=N\c2ccc(CC(C)C)c(F)c2)cc1` [Compound I-1256]: 18 nM.
In the case of `Cc1ccc(Cn2c(=O)n(C[C@H](C)C(=O)O)c(=O)[nH]/c2=N\c2ccc3nc(C)sc3c2)cc1` [Compound I-1473], the IC50 was determined as 12 nM.
Regarding `CCn1c(=O)[nH]/c(=N\c2ccc(Oc3ccccc3C(=O)O)cc2)n(Cc2ccc(Cl)cc2)c1=O` [Compound I-1992], the IC50 was 240 nM.
The same measure, in the same setting: the result for `CCn1c(=O)[nH]/c(=N\c2ccc(Oc3nccc(OC)n3)cc2)n(Cc2ccc(Cl)cc2)c1=O` [Compound I-2096] reads 35 nM; that for `O=C(O)Cn1c(=O)[nH]/c(=N\c2ccc(Oc3ccnc(O)c3)cc2)n(Cc2ccc(Cl)cc2)c1=O` [Compound I-1932], 95 nM.
On the same count and under the same terms, the same measure for `CCn1c(=O)[nH]/c(=N\c2ccc(Oc3ccc(C(=O)O)nc3)cc2)n(Cc2ccc(Cl)cc2)c1=O` [Compound I-2115]: 18 nM; for `COC(=O)c1cccc(Cn2c(=O)[nH]/c(=N\c3ccc(OC(C)C)c(C)c3)n(Cc3ccc(Cl)cc3)c2=O)n1` [Compound I-0781]: 9 nM.
Still for that read-out and setting: the result for `COc1ncccc1Cn1c(=O)[nH]/c(=N\c2ccc(OC(C)C)c(F)c2)n(Cc2ccc(Cl)cc2)c1=O` [Compound I-0683] reads 9 nM.
Take `COc1ccc(Cn2c(=O)[nH]/c(=N\c3ccc(OC(C)C)c(F)c3)n(Cc3ccc(Cl)cc3)c2=O)cn1` [Compound I-0641]: the IC50 came to 26 nM.
On the same count and under the same terms, the same measure for `Cc1oc2ccc(/N=c3\[nH]c(=O)n(CC4COC(C)(C)OC4)c(=O)n3Cc3ccc(Cl)cc3)cc2c1C` [Compound I-2071]: 8 nM.

Still in this experiment, the particulars now being: C6BU-1 cells stably expressing human P2X3 receptor, Fluo-3 fluorescence, FDSS 3000.
On to `CCn1c(=O)[nH]/c(=N\c2ccc(Oc3cccc(CC(=O)OC)c3)cc2)n(Cc2ccc(Cl)cc2)c1=O` [Compound I-1889], for which the IC50 is 23 nM.
The same measure, in the same setting: the result for `Cc1ccc(Cn2c(=O)n(C[C@H](C)C(=O)O)c(=O)[nH]/c2=N\c2ccc(OC3CCOCC3)cc2)cc1` [Compound I-1074] reads 86 nM.
On the same count and under the same terms, the same measure for `CCc1oc2ccc(/N=c3\[nH]c(=O)n(CCCC(=O)OC)c(=O)n3Cc3ccc(Cl)cc3)cc2c1C` [Compound I-1700]: 12 nM; for `COC(=O)[C@@H](C)Cn1c(=O)[nH]/c(=N\c2ccc(OC3CCOCC3)cc2)n(Cc2ccc(C)cc2)c1=O` [Compound I-1073]: 92 nM.
Still for that read-out and setting: the result for `Cc1cc(/N=c2\[nH]c(=O)n(CC3CNC3)c(=O)n2Cc2ccc(Cl)cc2)ccc1OC(C)C` [Compound I-1654] reads 66 nM; that for `CC(=O)OCC(CO)CCn1c(=O)[nH]/c(=N\c2ccc3nc(C)sc3c2)n(Cc2ccc(Cl)cc2)c1=O` (stereo not shown) [Compound I-1851], 4 nM; that for `COC(=O)[C@@H](C)Cn1c(=O)[nH]/c(=N\c2ccc3oc(C)c(C)c3c2)n(Cc2ccc(Cl)cc2)c1=O` [Compound I-1650], 9 nM.
Regarding `COC(=O)[C@@H](C)Cn1c(=O)[nH]/c(=N\c2ccc(OC3CCCCC3)nc2)n(Cc2ccc(C)cc2)c1=O` [Compound I-1184], the IC50 turned out to be 138 nM.
Still for that read-out and setting: the same measure for `CCOC(=O)C1(Cn2c(=O)[nH]/c(=N\c3ccc(OCC)c(Cl)c3)n(Cc3ccc(Cl)cc3)c2=O)CC1` [Compound I-0918]: 14 nM; for `CCC[C@@H](C)Oc1ccc(/N=c2\[nH]c(=O)n(C[C@H](C)C(=O)OC)c(=O)n2Cc2ccc(C)cc2)cc1` [Compound I-1047]: 154 nM.

Staying with this experiment, now noted: human P2X3 receptor, Test Example 1.
`CCn1c(=O)[nH]/c(=N\c2ccc(Oc3ccc(NCC(=O)O)nc3)cc2)n(Cc2ccc(Cl)cc2)c1=O` [Compound I-2622]: the IC50 worked out at 5 nM.
Still for that read-out and setting: the same measure for `Cc1cnc(Oc2ccc(/N=c3\[nH]c(=O)n(C[C@H](O)CO)c(=O)n3Cc3ccc(Cl)cc3)cc2)s1` [Compound I-2513]: 6 nM; for `O=C(Cn1c(=O)[nH]/c(=N\c2ccc(Oc3ccon3)cc2)n(Cc2ccc(Cl)cc2)c1=O)NCCO` [Compound I-2680]: 12 nM.
On the same count and under the same terms, the same measure for `CCc1nc2ccc(/N=c3\[nH]c(=O)n(CC4(C(=O)O)CC4)c(=O)n3Cc3ccc(Cl)cc3)cc2s1` [Compound I-1553]: 11 nM; for `CCn1c(=S)[nH]/c(=N\c2ccc(Oc3ccnc(O)c3)cc2)n(Cc2ccc(Cl)cc2)c1=O` [Compound I-2258]: 3 nM.
`O=c1[nH]/c(=N\c2ccc(Oc3cnsn3)cc2)n(Cc2ccc(Cl)cc2)c(=O)n1C[C@H](O)CO` [Compound I-2479]: the IC50 stood at 8 nM.
Consider `O=C(Cn1c(=O)[nH]/c(=N\c2ccc(Oc3cccnn3)cc2)n(Cc2ccc(Cl)cc2)c1=O)NCCO` [Compound I-2691], for which the IC50 was determined as 8 nM.
Still for that read-out and setting: the same measure for `Cc1ccc(Cn2c(=O)n(C[C@H](C)C(=O)O)c(=O)[nH]/c2=N\c2ccc(OCC(C)C)c(C)c2)cc1` [Compound I-0836]: 95 nM.
With `Cn1c(=O)[nH]/c(=N\c2ccc(Oc3ncc(C(=O)O)s3)cc2)n(Cc2ccc(Cl)cc2)c1=O` [Compound I-2409], the half-maximal inhibitory concentration (IC50) turned out to be 14 nM.
As for `O=c1[nH]/c(=N\c2ccc(Oc3cccnn3)cc2)n(Cc2ccc(Cl)cc2)c(=O)n1CC(CO)CO` [Compound I-2692], the IC50 was found to be 8 nM.
Still for that read-out and setting: the same measure for `CCCOc1ccc(/N=c2\[nH]c(=O)n(C[C@H](CC)C(=O)O)c(=O)n2Cc2ccc(Cl)cc2)cc1` [Compound I-0890]: 32 nM; for `CC[C@@H](C)Oc1ccc(/N=c2\[nH]c(=O)n(C[C@H](C)C(=O)O)c(=O)n2Cc2ccc(C)cc2)cc1` [Compound I-0854]: 32 nM.
Consider `NC(=O)CCn1c(=O)[nH]/c(=N\c2ccc(Oc3ncccn3)cc2)n(Cc2ccc(Cl)cc2)c1=O` [Compound I-2565], for which the IC50 was 17 nM.
For `CCn1c(=O)[nH]/c(=N\c2ccc(Oc3ccnc(C(N)=O)c3)cc2)n(Cc2ccc(F)cc2)c1=O` [Compound I-2361], the IC50 turned out to be 15 nM.
`CCn1c(=O)[nH]/c(=N\c2ccc(Oc3ccnc(C(N)=O)c3)cc2)n(Cc2ccc(Cl)cn2)c1=O` [Compound I-2237]: the IC50 was 20 nM.
Still for that read-out and setting: the result for `Cc1ccc(Cn2c(=O)n(CCC(N)=O)c(=O)[nH]/c2=N\c2ccc(Oc3ncccn3)cc2)cc1` [Compound I-2566] reads 17 nM.
